# Experimental data taken from the RepoRT retention time repository (doi:10.1016/j.jhazmat.2019.121712).
# Assay: Thermo Scientific Acclaim RSLC 120 C18, 100 × 2.1 mm, 2.2 µm, 30 °C; A: 90% water + 10% methanol + 0.01% formic acid + 5 mM ammonium formate; B: methanol + 0.01% formic acid + 5 mM ammonium formate; gradient (min/%B) 0.1/1 3/39 14/99.9 16/99.9
# Conditions: stereoisomer not certain
row,LC retention time [min],SMILES
1,13.9,CC1COCc2cc3c(cc21)C(C)(C)C(C)C3(C)C (centres undefined)
2,4.47,c1ccc2c(c1)CCCC2C1=NCCN1 (centres undefined)
3,10.1,C1=Cc2ccccc2Nc2ccccc21
4,8.43,Cc1ccsc1C(=CCCN1CCCC(C(=O)O)C1)c1sccc1C (centres undefined)
5,8.99,COc1ccc2cc(C(C)C(=O)O)ccc2c1 (centres undefined)
6,6.89,CCN(CC)C(=O)C(C#N)=Cc1cc(O)c(O)c([N+](=O)[O-])c1
7,8.25,COC(=O)Nc1nc2ccc(C(=O)c3ccccc3)cc2[nH]1
8,5.39,C[N+](C)([O-])CCC(c1ccccc1)c1ccccn1 (centres undefined)
9,7.66,CC(C)OC(=O)Nc1ccc2nc(-c3cscn3)[nH]c2c1
10,4.36,Cc1ccsc1C=CC1=NCCCN1C
11,8.69,CC12CCC3c4ccc(O)c(O)c4CCC3C1CCC2=O (centres undefined)
12,4.11,NS(=O)(=O)c1ccc(N2CCCCS2(=O)=O)cc1
13,9.19,CCN(CC)CCOC(=O)C(c1ccccc1)C1CCCCC1 (centres undefined)
14,3.43,CNC(=C[N+](=O)[O-])NCCSCc1ccc(C[N+](C)(C)[O-])o1
15,13.2,Cc1nn(C)c(Oc2ccccc2)c1C=NOCc1ccc(C(=O)OC(C)(C)C)cc1
16,4.53,NS(=O)(=O)Cc1noc2ccccc12
17,3.98,CCCN(CCC)CCc1cccc2c1CC(=O)N2
18,2.71,CC(C)C(N)C(=O)OCC(CO)OCn1cnc2c(=O)[nH]c(N)nc21 (centres undefined)
19,6.91,CC12CC3CC(C)(C1)CC(N)(C3)C2
20,1.31,NC(=O)C1CCCN1 (centres undefined)
21,9.01,CCCc1nn(C)c2c(=O)[nH]c(-c3cc(S(=O)(=O)N4CCN(C5CCCC5)CC4)ccc3OCC)nc12
22,4.92,COc1cc2nc(N3CCN(C(=O)C4CCCO4)CC3)nc(N)c2cc1OC (centres undefined)

row,LC retention time [min],SMILES
1,8.8,CC(=O)OCC(=O)C1(O)CCC2C3CCC4=CC(=O)CCC4(C)C3C(O)CC21C (centres undefined)
2,6.18,CNCC(c1ccc(OC)cc1)C1(O)CCCCC1 (centres undefined)
3,5.72,Cc1c(NC(C)C)c(=O)n(-c2ccccc2)n1C
4,4.31,CCN(CC)CCNC(=O)COc1ccc(OC)cc1
5,6.63,CN(C)CCOC(c1ccccc1)c1ccccc1
6,1.38,NC(CO)C(=O)NNCc1ccc(O)c(O)c1O (centres undefined)
7,7.85,CC12C=CC(=O)C=C1CCC1C2C(=O)CC2(C)C1CCC2(O)C(=O)CO (centres undefined)
8,3.34,CC(=O)Nc1ccc(OCC(O)CNC(C)C)cc1 (centres undefined)
9,6.83,CCOC(=O)C(CCc1ccccc1)NC(C)C(=O)N1CCCC1C(=O)O (centres undefined)
10,9.32,O=C(C1CCCCC1)N1CC(=O)N2CCc3ccccc3C2C1 (centres undefined)
11,11.1,CC#CC1(O)CCC2C3CCC4=CC(=O)CCC4=C3C(c3ccc(N(C)C)cc3)CC21C (centres undefined)
12,3.56,CCOc1ccc(S(=O)(=O)O)c2cccnc12
13,4.59,CC(=O)Nc1ccc(S(=O)(=O)Nc2nc(C)cc(C)n2)cc1
14,11.1,COC(=O)C1=C(C)NC(C)=C(C(=O)OC(C)(C)CN(C)CCC(c2ccccc2)c2ccccc2)C1c1cccc([N+](=O)[O-])c1 (centres undefined)
15,5.73,CCN(CC)C(=O)C1(c2ccccc2)CC1CN (centres undefined)
16,6.86,CC(C1=C(CCN(C)C)Cc2ccccc21)c1ccccn1 (centres undefined)
17,1.93,CCC(CO)NCCNC(CC)CO (centres undefined)
18,7.49,CCCCc1ncc(C=C(Cc2cccs2)C(=O)O)n1Cc1ccc(C(=O)O)cc1
19,12.2,CCOc1nc2cccc(C(=O)OC(C)OC(=O)OC3CCCCC3)c2n1Cc1ccc(-c2ccccc2-c2nn[nH]n2)cc1 (centres undefined)
20,12,CCOc1c(N)c2c(c(OCC)c1OCC)C(C1c3c(cc4c(c3OC)OCO4)CCN1C)OC2=O (centres undefined)
21,8.74,CC12CCC(=O)C=C1CCC1C2C(O)CC2(C)C(C(=O)CO)CCC12 (centres undefined)
22,8.09,Cc1ccc(S(=O)(=O)NC(=O)NN2CCCCCC2)cc1

row,LC retention time [min],SMILES
1,3.58,Cc1ncc([N+](=O)[O-])n1CCO
2,6.41,c1ccc(CN(CC2=NCCN2)c2ccccc2)cc1
3,6.38,CCOC(=O)CSc1nc(C(C)(C)C)nn1C(=O)N(C)C
4,2.61,Cn1cc[nH]c1=S
5,8.08,CN(C)CCCN1c2ccccc2CCc2ccccc21
6,4.86,NC12CC3CC(CC(C3)C1)C2
7,2.64,CCCNC1CCc2nc(N)sc2C1 (centres undefined)
8,8.83,COC(=O)C(Cc1ccccc1)NC(=O)C(CC(=O)O)NCCC(C)(C)C (centres undefined)
9,1.39,CN(C)C(=N)N=C(N)N
10,7.5,CCCc1nn(C)c2c(=O)[nH]c(-c3cc(C(=O)CN4CC(C)NC(C)C4)ccc3OCC)nc12 (centres undefined)
11,3.68,c1ccc(C2CN3CCSC3=N2)cc1 (centres undefined)
12,7.24,CC(Cc1ccccc1)N1C=C(NC(=O)N=C2C=CC(=O)C=C2)ON1 (centres undefined)
13,8.49,CCC(=O)c1ccc2c(c1)N(CCCN(C)C)c1ccccc1S2
14,2.99,CN(CCO)CC(O)Cn1cnc2c1c(=O)n(C)c(=O)n2C (centres undefined)
15,3.18,CCN1CCCC1CNC(=O)c1cc(S(N)(=O)=O)ccc1O (centres undefined)
16,1.58,NCCc1cnc[nH]1
17,10.3,COC(=O)C1=C(C#N)NC(C)=C(C(=O)OC(C)C)C1c1cccc([N+](=O)[O-])c1 (centres undefined)
18,2.96,CC(C)NCC(O)c1ccc(NS(C)(=O)=O)cc1 (centres undefined)
19,5.63,CCC(=O)C1C(=O)CC(C(=O)O)CC1=O (centres undefined)
20,3.24,CN=C(NC#N)NCCSCc1nc[nH]c1C

row,SMILES,LC retention time [min]
1,COC(=O)c1ccccc1S(=O)(=O)NC(=O)Nc1nc(C)nc(OC)n1,6.31
2,CCOP(=S)(OCC)OP(=S)(OCC)OCC,10.8
3,COc1ccc(C(=O)c2c(C)n(CCN3CCOCC3)c3ccccc23)cc1,9.55
4,O=C(O)CCCO,1.95
5,CCCCc1c(C)nc(N(C)C)[nH]c1=O,7.7
6,O=C1CN=C(c2ccccc2)c2cc([N+](=O)[O-])ccc2N1,7.79
7,CCCCCn1cc(C(=O)c2cccc3ccccc23)c2ccc(OC)cc21,12.4
8,CSC1=NC(C)(c2ccccc2)C(=O)N1Nc1ccccc1 (centres undefined),9.22
9,CCCCCn1cc(C(=O)Cc2ccccc2C)c2ccccc21,12.2
10,CCOc1ccc2c3c1OC1C(O)C=CC4C(C2)N(C)CCC341 (centres undefined),4.08
11,CC(Cc1ccccc1)NCCn1cnc2c1c(=O)n(C)c(=O)n2C (centres undefined),5.06
12,CCCCCn1cc(C(=O)N2CCN(C)CC2)c2ccccc21,7.75
13,OC(c1ccccc1)(c1ccccc1)C1CCNCC1,6.19
14,CCCNC(C)Cc1ccccc1 (centres undefined),4.83
15,CCNCC(O)c1cccc(O)c1 (centres undefined),2.66
16,COc1cccc(C2(O)CCCCC2CN(C)C)c1 (centres undefined),4.88
17,NCC1CCCCC1(O)c1cccc(O)c1 (centres undefined),4.36
18,CN(C)P(=O)(OP(=O)(N(C)C)N(C)C)N(C)C,5.36
19,CCCCCn1cc(C(=O)c2cccc3ccccc23)cc1-c1ccccc1C,13.4
20,CCCC(C(=O)c1ccc(C)cc1)N1CCCC1 (centres undefined),6.03
21,CC(C)C(NC(=O)c1nn(CC2CCCCC2)c2ccccc12)C(N)=O (centres undefined),11.3
22,CC(C)OC(=O)Nc1ccccc1,8.11
23,CC(C)N1C(=O)c2ccccc2NS1(=O)=O,5.22
24,COC(=O)C1C(OC(=O)c2ccccc2)CC2CCC1N2C (centres undefined),4.84
25,CCNc1nc(NC(C)C)nc(SC)n1,9.16

row,SMILES,LC retention time [min]
1,COP(=S)(OC)Oc1ccc(Sc2ccc(OP(=S)(OC)OC)cc2)cc1,12.4
2,CCOC1Oc2ccc(OS(C)(=O)=O)cc2C1(C)C (centres undefined),9.14
3,COc1ccc(CCN)cc1OC,3.53
4,CCC(CC)COC(C(=O)OCCN(C)C)(c1ccccc1)c1ccccc1,11.6
5,CCCCn1cc(C(=O)c2cccc3ccccc23)c2cc(O)ccc21,11.3
6,CC(C(O)c1ccccc1)N(C)C (centres undefined),3.73
7,N=C1NC(=O)C(c2ccccc2)O1 (centres undefined),4.34
8,CC1(c2ccc(Oc3ccccc3)cc2)OC(=O)N(Nc2ccccc2)C1=O (centres undefined),11
9,COCC(NC(C)=O)C(=O)NCc1ccccc1 (centres undefined),5.09
10,CCCCCn1cc(C(=O)NCc2ccccc2)c2ccccc21,11.2
11,Cc1cc(C)nc(NC(=O)NS(=O)(=O)c2ccccc2C(=O)OC2COC2)n1,6.52
12,CCCCCn1cc(C(=O)c2ccc(CC)c3ccccc23)c2ccccc21,13.2
13,CC(C)C1(C)N=C(c2nc3ccccc3cc2C(=O)O)NC1=O (centres undefined),6.1
14,CC(N)C(=O)c1ccccc1 (centres undefined),3.59
15,Cc1cccc(CC(C)N)c1 (centres undefined),5.17
16,CCOP(=S)(OCC)Oc1ccc([N+](=O)[O-])cc1,10.7
17,O=C(OC1CC2CCC(C1)[N+]21CCCC1)C(O)(c1ccccc1)c1ccccc1 (centres undefined),5.72
18,CCCCCCC(C)(C)c1ccc(C2CC(O)CCC2CCCO)c(O)c1 (centres undefined),12
19,c1ccc2c(c1)Sc1ccccc1N2CC1CN2CCC1CC2 (centres undefined),8.29
20,COC(=O)C(NC(=O)c1nn(CC2CCCCC2)c2ccccc12)C(C)C (centres undefined),12.4
21,CN1CCC23c4c5ccc(O)c4OC2C(O)C=CC3C1C5 (centres undefined),2.54
22,COc1nc(NC(C)C)nc(NC(C)C)n1,8.86
23,c1cncc(C2CCCCN2)c1 (centres undefined),2.94
24,COc1cc(CCN)cc(OC)c1OC,3.88
25,CCOP(=S)(OCC)SCCSCC,11.5
